From patent publication US20090062337A1, “Treatment of Microbial Infections” (WYSIS TECHNOLOGY FOUNDATION, INC., priority 2007, published 2009)
≈ marks a conversion by molar mass, not a printed value.

Test system: Burkholderia cepacia
Assay: MIC against Burkholderia cepacia
Format: cell-based
Details: Table 2; comparison of compounds against Burkholderia cepacia

MIC	SMILES
40 µg/mL (≈ 277 µM)	Nc1ccnc2ccccc12 [4-aminoquinoline]
> 128 µg/mL	Oc1ccc2ccccc2n1 [2-hydroxyquinolone]
